33 compounds from patent publication US5081131A, “Omega-((hetero)alkyl)benz(cd)-indol-2-amines” (American Cyanamid Company, priority 1988, dated 1992) can be followed below.

In assay [1] the test system is spontaneously hypertensive rats. Nature of the assay: Hypotensive activity in spontaneously hypertensive rats (MABP). Particulars: SHR, gavage, two doses of 10 mg/kg or less 24 h apart, MABP at 28 h; average baseline 160±1.5 mm Hg. It counts as in vivo, rat (Okamoto strain). Here is the method: The novel compounds of the present invention are active hypotensive agents and were tested for hypotensive activity by the method of P. S. Chan and D. Poorvin, Clinical and Experimental Hypertension, 1 (6), 817-830 (1979). Male, 16 week old, spontaneously hypertensive rats of the Okamoto strain, from Taconic Farms, Germantown, N.Y., having an average mean arterial blood pressure of 160±1.5 mm of mercury, were used in the test. One to 4 rats were used per test compound. A rat was dosed by gavage with a test compound, suspended in 2% pre-boiled starch at a concentration of 50 mg/ml, at a doses of 10 mg/kg of body weight or less, with 0.9% sodium chloride loading at a dose of 25 ml/kg of body weight. A second identical dose of the test compound, without sodium chloride loading was given 24 hours later. At 28 hours after initial dose the mean arterial blood pressure (MABP) was measured. The procedure was repeated in a second and third rat when necessary.

Assay [2] addresses T1, thromboxane synthetase enzyme (Rattus norvegicus, UniProt P49430).
T1 construct: endogenous in cells; host or cells: washed platelets from arterial blood of male Okamoto-Aoki spontaneously hypertensive rats (animals from Taconic Farms, Germantown, N.Y.)
T1 sequence (P49430 1-533): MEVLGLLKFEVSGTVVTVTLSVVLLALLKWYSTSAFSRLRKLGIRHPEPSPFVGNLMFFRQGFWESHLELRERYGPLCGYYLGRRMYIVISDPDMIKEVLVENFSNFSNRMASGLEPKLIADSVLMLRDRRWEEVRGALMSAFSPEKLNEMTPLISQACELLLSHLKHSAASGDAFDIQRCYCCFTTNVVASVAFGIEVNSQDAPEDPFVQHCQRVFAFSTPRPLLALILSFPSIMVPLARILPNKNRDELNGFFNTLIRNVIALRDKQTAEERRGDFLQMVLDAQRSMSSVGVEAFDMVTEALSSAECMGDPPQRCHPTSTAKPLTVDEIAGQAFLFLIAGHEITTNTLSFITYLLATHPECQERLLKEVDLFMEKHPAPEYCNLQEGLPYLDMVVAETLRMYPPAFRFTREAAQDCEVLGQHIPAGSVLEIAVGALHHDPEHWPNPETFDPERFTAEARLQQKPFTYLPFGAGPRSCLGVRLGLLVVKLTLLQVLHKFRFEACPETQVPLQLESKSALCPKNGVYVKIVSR
As to the kind of experiment: Thromboxane synthetase enzyme inhibition (TXB2 formation in washed platelets, RIA). Format: cell-based, spontaneously hypertensive rat. To be noted: SHR platelets, 10 min at 37° C. As for the experimental part: The blood was diluted with 3 ml cold saline and centrifuged at room temperature for 15 min at 468×g. The platelet rich plasma (PRP) was separated. The platelets were isolated by certrifuging the PRP for 10 minutes at 1060×g and washed in 4 ml cold oxygenated Krebs phosphate buffer, pH 7.4. The chilled platelets recovered from centrifuging at 800×g for 10 minutes were resuspended in oxygenated Krebs phosphate buffer and diluted to contain 4.0-6.0×10^4 platelets/micro-liters. The inhibition of TX formation was studied by determining the concentration of thromboxane B2 (TXB2), the stable hydrolysis product of TXA2. Assay samples prepared on ice, contained 200 micro-liters platelet suspension, 50 micro-liters saline, and 50 micro-liters […] (saline) or drug under study. The test drug (0.003 mole) was dissolved in 5 ml of saline. […] The assay samples were incubated for 10 minutes at 37° C. in a metabolic shaker at about 60 rpm. The reaction was terminated by immersing the tubes in an ice bath and adding 50 micro-liters of 0.5M citric acid. The samples were centrifuged for 10 minutes at 2000 rpm at 4° C., and the supernatants were decanted.

Where [3] appears, read: 1×10^-4 Molar, read-out: % Inhibition (Thromboxane Synthetase Enzyme Inhibition).

Structures can show the parent of a compound that is named as a salt. Where two headings read alike, the source gives them in different places.

By inhibition is commonly meant the share of the control response that was lost under treatment. With `Clc1cc(Cl)c2cccc3c2c1N=C3NCCCn1ccnc1` [6,8-Dichloro-N-(3-(1H-imidazol-1-yl)propyl)benz(cd)indol-2-amine], the “Avg. MABP in mm Hg (No. of Rats)” value in assay [1] was 102 mm Hg. Besides, the inhibition at 100 µM in assay [2] (setting [3]) worked out at 97%.

Consider `Clc1cc(Cl)c2cccc3c2c1N=C3NCCCCn1ccnc1` [6,8-Dichloro-N-(4-(1H-imidazol-1-yl)butyl)benz(cd)indol-2-amine], for which the “Avg. MABP in mm Hg (No. of Rats)” value in assay [1] is reported as 115 mm Hg. For the same compound, in assay [2] (setting [3]), the inhibition at 100 µM came out at 99%.

With `Clc1cc(Cl)c2cccc3c2c1N=C3NCCCCc1cccnc1` [6,8-Dichloro-N-(4-(3-pyridinyl)butyl)benz(cd)indol-2-amine], the “Avg. MABP in mm Hg (No. of Rats)” value in assay [1] worked out at 102 mm Hg. Also, in assay [2] (setting [3]), the inhibition at 100 µM is 93%.

`Clc1cc(Cl)c2cccc3c2c1N=C3NCCCCCCCCCCn1ccnc1` [6,8-Dichloro-N-(10-(1H-imidazol-1-yl)decyl)benz(cd)indol-2-amine]: in assay [1], the “Avg. MABP in mm Hg (No. of Rats)” value is 121 mm Hg. In addition, the inhibition at 100 µM in assay [2] (setting [3]) was 96%.

On to `Brc1ccc2c3c(cccc13)C(NCCCn1ccnc1)=N2` [6-Bromo-N-(3-(1H-imidazol-l-yl)propyl)benz(cd)indol-2-amine, dihydrochloride], for which, in assay [1], the “Avg. MABP in mm Hg (No. of Rats)” value worked out at 117 mm Hg. The inhibition at 100 µM in assay [2] (setting [3]) is 85%.

In the case of `Brc1ccc2c3c(cccc13)C(NCCCCn1ccnc1)=N2` [6-Bromo-N-(4-(1H-imidazol-1-yl)butyl)benz(cd)indol-2-amine], the “Avg. MABP in mm Hg (No. of Rats)” value in assay [1] is listed as 120 mm Hg. The inhibition at 100 µM in assay [2] (setting [3]) was found to be 98%.

For `Brc1ccc2c3c(cccc13)C(NCCCCc1cccnc1)=N2` [6-Bromo-N-(4-(3-pyridinyl)butyl)benz(cd)indol-2-amine sesqui-fumarate], the “Avg. MABP in mm Hg (No. of Rats)” value in assay [1] was 110 mm Hg. The inhibition at 100 µM in assay [2] (setting [3]) amounted to 92%.

`Brc1ccc2c3c(cccc13)C(NCCCCc1cccnc1)=N2.Cl.Cl` [6-Bromo-N-(4-(3-pyridinyl)butyl)benz(cd)indol-2-amine, dihydrochloride]: the “Avg. MABP in mm Hg (No. of Rats)” value in assay [1] amounted to 99 mm Hg. The “% Inhibition (Thromboxane Synthetase Enzyme Inhibition)” value (from here on “% Inhibition”) in assay [2] (1×10^-4 Molar) amounted to 89%.

In the case of `Brc1ccc2c3c(cccc13)C(NCCCCCCCCCCn1ccnc1)=N2` [6-Bromo-N-(10-(1H-imidazol-1-yl)decyl)benz(cd)indol-2-amine], the inhibition at 100 µM in assay [2] (setting [3]) turned out to be 94%.

In the case of `Brc1ccc2c3c(cccc13)C(NCCCCCCCCCCCCn1ccnc1)=N2` [6-Bromo-N-(12-(1H-imidazol-1-yl)dodecyl)benz(cd)indol-2-amine], in assay [1], the “Avg. MABP in mm Hg (No. of Rats)” value was 128 mm Hg. In assay [2] (setting [3]), the inhibition at 100 µM worked out at 90%.

Take `Clc1ccc2c3c(cccc13)C(NCCCCCn1ccnc1)=N2` [6-Chloro-N-(5-(1H-imidazol-1-yl)pentyl)benz(cd)indol-2-amine]: the inhibition at 100 µM in assay [2] (setting [3]) came out at 100%.

With `C(=C/Cn1ccnc1)/CNC1=Nc2cccc3cccc1c23.Cl.Cl` [(Z)-N-(4-(1H-imidazol-1-yl)-2-butenyl)benz(cd)indol-2-amine, dihydrochloride], the “Avg. MABP in mm Hg (No. of Rats)” value in assay [1] is on record as 77 mm Hg. For the same compound, the inhibition at 100 µM in assay [2] (setting [3]) stood at 97%.

As for `Clc1ccc(C(Cn2ccnc2)NC2=Nc3cccc4cccc2c34)cc1` (stereo not shown) [N-(1-(4-chlorophenyl)-2-(1H-imidazol-1-yl)ethyl)benz(cd)indol-2-amine, fumarate], the inhibition at 100 µM in assay [2] (setting [3]) stood at 35%.

As for `Cn1cccc1CCNC1=Nc2cccc3cccc1c23` [N-(2-(1-Methyl-1H-pyrrol-2-yl)ethyl)benz(cd)indol-2-amine, fumarate], the inhibition at 100 µM in assay [2] (setting [3]) is 90%.

As to `c1cc2c3c(cccc3c1)C(NCCn1ccnc1)=N2` [N-(2-(1H-imidazol-1-yl)ethyl)benz(cd)indol-2-amine], in assay [2] (setting [3]), the inhibition at 100 µM was found to be 71%.

As to `c1cc2c3c(cccc3c1)C(NCCOCCn1ccnc1)=N2` [N-(2-(2-(1H-imidazol-1-yl)ethoxy)ethyl)benz(cd)indol-2-amine bis-fumarate], in assay [2] (setting [3]), the inhibition at 100 µM was 98%.

For `N#CCCN(Cc1ccccn1)C1=Nc2cccc3cccc1c23` [N-(2-Cyanoethyl)-N-(2-pyridinylmethyl)benz(cd)indol-2-amine, dihydrochloride], the inhibition at 100 µM in assay [2] (setting [3]) turned out to be 97%.

With `c1ccc(CNC2=Nc3cccc4cccc2c34)nc1` [N-(2-Pyridinylmethyl)benz(cd)indol-2-amine, fumarate], the inhibition at 100 µM in assay [2] (setting [3]) came to 95%.

Consider `OC(CNC1=Nc2cccc3cccc1c23)Cn1ccnc1` (stereo not shown) [N-(3-(1H-imidazol-1-yl)-2-hydroxypropyl)benz(cd)indol-2-amine], for which the inhibition at 100 µM in assay [2] (setting [3]) was found to be 88%.

On to `c1cc2c3c(cccc3c1)C(NCCCn1ccnc1)=N2` [N-(3-(1H-imidazol-1-yl)propyl)benz(cd)indol-2-amine, fumarate], for which the inhibition at 100 µM in assay [2] (setting [3]) is 92%.

With `Cc1nccn1CCCNC1=Nc2cccc3cccc1c23` [N-(3-(2-Methyl-1H-imidazol-1-yl)propyl)benz(cd)indol-2-amine, monohydriodide], the inhibition at 100 µM in assay [2] (setting [3]) was determined as 82%.

With `c1ccc(-c2nccn2CCCNC2=Nc3cccc4cccc2c34)cc1` [N-(3-(2-Phenyl-1H-imidazol-1-yl)propyl)benz(cd)indol-2-amine, hydriodide], the inhibition at 100 µM in assay [2] (setting [3]) was 100%.

As to `CC(CCNC1=Nc2cccc3cccc1c23)c1ccncc1` (stereo not shown) [N-(3-(4-pyridinyl)butyl)benz(cd)indol-2-amine], in assay [2] (setting [3]), the inhibition at 100 µM worked out at 95%.

In the case of `c1cncc(CNC2=Nc3cccc4cccc2c34)c1` [N-(3-Pyridinylmethyl)benz(cd)indol-2-amine, fumarate], the inhibition at 100 µM in assay [2] (setting [3]) was 68%.

For the compound `c1cc2c3c(cccc3c1)C(NCCCCn1ccnc1)=N2` [N-(4-(1H-imidazol-1-yl)butyl)benz(cd)indol-2-amine monobutanedioic acid salt], the inhibition at 100 µM in assay [2] (read-out: % Inhibition (Thromboxane Synthetase Enzyme Inhibition), 1×10^-4 Molar) was found to be 93%.

On to `c1cc2c3c(cccc3c1)C(NCCCCn1ccnc1)=N2` [N-(4-(1H-imidazol-1-yl)butyl)benz(cd)indol-2-amine sesquibut] [N-(4-(1H-imidazol-1-yl)butyl)benz(cd)indol-2-amine sesquibutanedioic acid salt], for which the “% Inhibition” value in assay [2] (1×10^-4 Molar) turned out to be 98%.

In the case of `c1cc2c3c(cccc3c1)C(NCCCCn1ccnc1)=N2` [N-(4-(1H-imidazol-1-yl)butyl)benz(cd)indol-2-amine, hydriodi] [N-(4-(1H-imidazol-1-yl)butyl)benz(cd)indol-2-amine, hydriodide], in assay [2] (1×10^-4 Molar), the “% Inhibition” value was 100%.

On to `CC(CCCNC1=Nc2cccc3cccc1c23)n1ccnc1.O=C(O)/C=C/C(=O)O.O=C(O)/C=C/C(=O)O` (stereo not shown) [N-(4-(1H-imidazol-1-yl)pentyl)benz(cd)indol-2-amine, bis-fumarate], for which the “% Inhibition” value in assay [2] (1×10^-4 Molar) is 99%.

`c1ccc(-n2ncc(CNC3=Nc4cccc5cccc3c45)n2)cc1` [N-((2-Phenyl-2H-1,2,3-triazol-2-yl)methyl)benz(cd)indol-2-amine fumarate]: the inhibition at 100 µM in assay [2] (setting [3]) came out at 73%.

Take `O=C(c1ccc(Cl)cc1)N(CCCCn1ccnc1)C1=Nc2cccc3cccc1c23` [N-Benz(cd)indol-2-yl-4-chloro-N-(4-(1-imidazol-1-yl)butylbenzamide]: the inhibition at 100 µM in assay [2] (setting [3]) stood at 96%.

Take `O=C(c1ccccc1)N(CCCn1cncn1)C1=Nc2cccc3cccc1c23` [N-Benz(cd)indol-2-yl-N-(3-(1H-1,2,4-triazol-1-yl)propyl)benzamide]: the inhibition at 100 µM in assay [2] (setting [3]) worked out at 77%.

On to `CCC(=O)N(CCC(C)n1ccnc1)C1=Nc2cccc3cccc1c23` (stereo not shown) [N-Benz(cd)indol-2-yl-N-(3-(1H-imidazol-1-yl)butyl)propionamide], for which the inhibition at 100 µM in assay [2] (setting [3]) amounted to 95%.

On to `CN(CCc1ccccn1)C1=Nc2cccc3cccc1c23` [N-Methyl-N-(2-(2-pyridinyl)ethyl)benz(cd)indol-2-amine fumarate], for which, in assay [2] (setting [3]), the inhibition at 100 µM stood at 89%.
